Laboratory results as given in US20060013804A1, “Modulation of stem cell differentiation by modulation of caspase-3 activity” (Ottawa Health Research Institute, priority 2002, published 2006).

Experiments:
ASK1 = assay: Immunoprecipitation/kinase assay of ASK1 from neurospheres; type: cell-based, mouse; conditions: differentiation media, vs DMSO
Experimental: Immunoprecipitation/Kinase activity assays: Immunoprecipitation/kinase analyses were performed as previously described (Fernando, P., et al., (2002) Proc Natl Acad Sci USA 99, 11025-11030). Cellular lysates from neurospheres were generated as described above. Antibodies against apoptotic signal-regulating kinase 1 (ASK1) (Upstate, USA), p21 activated kinase 1 (PAK1) (Cell Signaling Technologies, USA), and p38 MAPK (Santa Cruz, USA) were used to immunoprecipitate respective proteins. Samples were mixed with Protein G-sepharose beads for 1 h, washed and then mixed with kinase assay buffer containing myelin basic protein (MBP) and γ-32P[ATP]. Samples were reacted at 30° C. for 30 min and separated using SDS-PAGE. In some instances, samples were transferred to PVDF membrane following electrophoresis. To quantify kinase activities, MBP acrylamide bands were excised and solubilized in scintillation fluid prior to 32P-liquid scintillation analyses. In all cases, an activated recombinant mitogen activated protein kinase activated protein-2 (MAPKAP kinase-2) (Upstate, USA) was used as an internal control for liquid scintillation analyses.
Caspase 3, when processed to its active form, is capable of targeting and activating many protein kinases that mediate cellular differentiation. […]

CD1 neurosphere cells = assay: Annexin-V-PI flow cytometry of differentiating neurosphere cells; type: cell-based, mouse
Experimental: Neurospheres were sub-cultured no more than once per collection. The differentiation of neurospheres was initated by plating spheres on poly-L-ornithine coated plates in NeuroCult Differentiation Medium in the absence of bFGF, as per manufacturer's instructions. […] All cultures received fresh media and inhibitor every 24 h for the duration of the experiment. Neurospheres from caspase 3 null embryos (Fernando, P., et al., (2002) Proc Natl Acad Sci USA 99, 11025-11030) were cultured as described above.
Flow Cytometry: Annexin-V-propidium iodide (PI) analysis of apoptotic and nectrotic cells was performed using an Annexin-V-FLUOS staining kit (Roche, USA). Analyses were performed using a Beckman-Coulter ALTRA flow cytometer. To detect Annexin-V and PI positive cells, flow cytometric channels were gated using cells without stain, stained with PI alone and stained with Annexin-V alone. Cells that had dissociated from their neurosphere bodies were gently collected without excessive disruption of the sphere/cell body. These cells were chosen for flow cytometry analyses. Each sample was gated to control for cellular debris.
As in most developmental processes, a population of cells is required to undergo apoptosis prior to the differentiation of a separate pool of cells. Clearly, the inhibition of caspase 3 may adversely affect this process. To address this issue, we measured the degree of apoptosis that occurred during differentiation in caspase 3 inhibited and uninhibited cells using the specific caspase 3 peptide inhibitor zDEVD.fmk and Annexin V-propidium iodide (PI) staining coupled to cytometric analyses (FIG. 15). Annexin V detects cells that are either apoptotic or necrotic whereas propidium iodide is able to detect necrotic cells. Together, Annexin-V-PI analyses identify the population of cells that are apoptotic, i.e. Annexin-V positive/PI negative. To control for the heterogeneity of cells within neurospheres as described previously (Bez et al., (2003) Brain Res 993, 18-29), we performed our analyses on cells that had dissociated from the neurosphere. […]

- ASK1 kinase activity (ASK1; listed as DEVD): decrease
- ASK1 kinase activity (ASK1; listed as z-DEVD): reduced
Compound: COC(=O)CC[C@H](NC(=O)[C@H](CC(=O)OC)NC(=O)OCc1ccccc1)C(=O)N[C@H](C(=O)N[C@@H](CC(=O)OC)C(=O)CF)C(C)C [z-DEVD.fmk]
- Annexin-V positive/PI positive cell population (CD1 neurosphere cells; 12 h in differentiation media, cells dissociated from neurosphere): approximately 27%
- level of apoptosis (Annexin-V-PI) (CD1 neurosphere cells; 24 h in differentiation media): 33%
- effect on apoptosis during neurosphere differentiation (CD1 neurosphere cells; inhibited relative to uninhibited cells): did not affect apoptosis
